{"source": "patent US12370202B2", "about": "“Methods and compositions for inhibiting the NLRP3 inflammasome and/or LON protease” (TRITERPENOID THERAPEUTICS, INC., priority 2019, dated 2025)", "key": {"[1]": {"assay": "Drug levels in brain after systemic dosing, HPLC/Mass Spec", "type": "in vivo, Mice", "protocol": "Mice (3 per group) were treated with single intraperitoneal (i.p.) doses of either 1 micromole (low dose) or 2 micromoles (high dose) of CDDO-2P-Im in DMSO. Brains were analyzed either 3 or 6 hours after dosing. Brains were homogenized in saline, then extracted with acetonitrile, and the extracts subjected to HPLC/Mass Spec analysis, using appropriate standard curves from spiked homogenates. Values obtained (in nanomoles/kg of brain) were: 270+/−80 (low dose, 3 hours); 300+/−90 (low dose, 6 hours); 2,600+/−2,200 (high dose, 3 hours); and 540+/−260 (high dose, 6 hours).\nA second experiment with oral or i.p. dosing of 1 micromole of CDDO-2P-Im, and analysis at 6 hours, confirmed the above results, with drug levels in brain ranging from 140 to 900 nanomoles/kg of brain in 10 different samples from cerebral cortex."}, "[2]": {"system": "primary cultures of patient-derived GBM cells", "assay": "Cell viability in primary cultures of human GBM", "type": "cell-based", "protocol": "(§1) To define the capacity of CDDO-2P-IM to suppress the growth and viability of GBM, several well-characterized human GBM cell lines (U251, U-87MG, LN227, Gli36Δ5), primary cultures of patient-derived GBM cells (UVM04, D028), and normal human astrocytes (provided by Dr. Arti Gaur, Dartmouth College) were utilized.\n(§2) The activity of CDDO-2P-IM in cultures of human GBM was assessed and similar nanomolar (nM) potency was observed. […] These changes in confluence observed by Incucyte® corresponded with a reduction in cell viability. Doses of CDDO-2P-IM that result in complete cell death of the LN227, U251 and U-87MG cell lines had no effect on the viability of primary human astrocytes in vitro (not shown)."}, "Caspase 1": {"system": "Caspase 1", "assay": "Caspase 1 activation in LPS-primed BMDM, immunoblotting (caspase-p10)", "type": "cell-based, mouse", "conditions": "different doses (30-1000 nM) 15 min before ATP (5 mM) 45 min", "protocol": "FIG. 5 depicts a Western blot. CDDO-Im, CDDO-2P-Im, and CDDO-3P-Im inhibit Caspase 1 activation. LPS primed BMDM were treated with different doses of CDDO-Im, CDDO-2P-Im, or CDDO-3P-Im for 15 min before ATP (5 mM) was added for 45 min. Medium supernatant (SUP) and cell extracts (Lys) were analyzed by immunoblotting.\nThe effects of the pyridyl derivatives of CDDO-IM, (specifically, CDDO-2P-Im and CDDO-3P-Im) on NLRP3 inflammasome activation were tested in mouse BMDMs. Cells were first primed with LPS for 4 hours, then pretreated with specific doses of either CDDO-Im, CDDO-2P-IM or CDDO-3P-Im (30-1000 nM) for 15 min before ATP was added for another 45 min. CDDO-Im and its pyridyl derivatives inhibited the amount of caspase-p10 (an auto-processed fragment of caspase-1) released into cell culture supernatants in a dose-dependent manner as measured by Western blot (FIG. 5). […] The effect on caspase-1 activation is specific for the NLRP3 inflammasome as the AIM2 inflammasome activation by poly(dA:dT) was not inhibited by the synthetic CDDO-Im derivatives (data not shown)."}, "5T33MM cells [3]": {"system": "5T33MM cells", "assay": "5T33MM syngeneic preclinical model of multiple myeloma", "type": "in vivo", "excerpt": "FIG. 1 is a survival curve. Survival of mice receiving either ixazomib (IXZ) or CDDO-2P-Im starting 21 days after tumor cell injection (n=5 mice per group). CDDO-2P-Im is active in the […] preclinical model of multiple myeloma.\nA well-characterized syngeneic model of MM was employed. Adoptive transfer of 5T33MM cells into C57BL/KaLwRij recipient mice invariably leads to MM bone disease, impaired hematopoietic function and death.\nTo monitor MM tumor progression in the 5T33MM preclinical model, a 5T33MM cell line that expresses either luciferase or GFP genes was established by transducing with lentiviral particles containing firefly luciferase and GFP genes (Amsibo, Cambridge, MA); cells were selected with FACS sorting for GFP expression and by puromycin-resistance. For these experiments, 1×10^6 5T33MM-luc cells were introduced by intravenous injection into C57BL/KaLwRij mice at 2 months of age. Bioluminescence (BLI) was measured by using the IVIS Imaging System 100 (Xenogen). At 3 weeks after 5T33MM cell inoculation (where mice have established disease by BLI), mice were randomized to receive either vehicle, CDDO-2P-IM ([…] daily administered by oral gavage (po), 5 days/week), or ixazomib (IXZ; 6 mg/kg per week, administered po every Monday, Wednesday and Friday)."}, "LONP1": {"target": "LONP1 (Homo sapiens, UniProt P36776)", "sequence (P36776 68-959, species assumed)": "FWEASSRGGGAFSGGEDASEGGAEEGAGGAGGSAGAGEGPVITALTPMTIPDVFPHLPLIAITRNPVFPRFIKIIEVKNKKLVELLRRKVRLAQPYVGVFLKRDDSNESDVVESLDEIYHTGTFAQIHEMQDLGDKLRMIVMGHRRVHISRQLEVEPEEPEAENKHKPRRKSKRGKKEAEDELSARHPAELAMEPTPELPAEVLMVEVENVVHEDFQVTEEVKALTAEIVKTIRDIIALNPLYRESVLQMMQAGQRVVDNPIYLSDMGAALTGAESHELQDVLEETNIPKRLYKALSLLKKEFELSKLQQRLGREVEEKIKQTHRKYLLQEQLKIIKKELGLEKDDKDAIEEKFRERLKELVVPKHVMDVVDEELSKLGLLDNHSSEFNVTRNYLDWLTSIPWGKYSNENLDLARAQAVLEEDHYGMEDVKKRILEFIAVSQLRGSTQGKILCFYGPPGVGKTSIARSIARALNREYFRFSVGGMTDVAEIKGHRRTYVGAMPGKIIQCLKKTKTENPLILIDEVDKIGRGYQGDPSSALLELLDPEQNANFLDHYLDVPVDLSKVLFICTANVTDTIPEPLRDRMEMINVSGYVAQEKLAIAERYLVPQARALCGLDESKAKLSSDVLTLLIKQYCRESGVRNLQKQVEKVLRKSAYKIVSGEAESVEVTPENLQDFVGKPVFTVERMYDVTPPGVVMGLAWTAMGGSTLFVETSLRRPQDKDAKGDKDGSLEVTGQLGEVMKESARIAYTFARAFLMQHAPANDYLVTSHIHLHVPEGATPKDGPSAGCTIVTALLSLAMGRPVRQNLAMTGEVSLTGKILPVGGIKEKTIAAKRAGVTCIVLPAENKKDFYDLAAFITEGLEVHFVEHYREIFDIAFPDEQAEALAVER", "assay": "Binding to LONP1"}, "primary human astrocytes": {"system": "primary human astrocytes", "assay": "Viability of primary human astrocytes", "type": "cell-based", "conditions": "doses that result in complete cell death of LN227, U251 and U-87MG; not shown", "protocol": "as §1, §2"}, "5T33MM cells [4]": {"system": "5T33MM cells", "assay": "MM cell proliferation (confluence), IncuCyte imaging", "type": "cell-based, murine", "conditions": "72 hours", "protocol": "FIG. 2 is a bar graph. CDDO-2P-Im inhibits proliferation of multiple myeloma cell line in vitro. 5T33MM, RPMI8226, and ARH77 cells were seeded in 96-well plates and incubated with CDDO-2P-Im (50 nM-150 nM). Confluence (cell proliferation) was measured using IncuCyte imaging after 72 hours. *p<0.01 compared to control.\nFIG. 3 is a bar graph. […] Shown here are results for 5T33MM (50 nM TTX01/7.5 nM IXZ); RPMI8226 (100 nM TTX01/7.5 nM IXZ); and ARH77 (150 nM TTX01/10 nM IXZ). Confluence (cell proliferation) was measured using IncuCyte imaging after 72 hours.\nTo examine tumor-intrinsic effects of CDDO-2P-IM in the 5T33MM cell line and in human MM cells, conducted a series of in vitro studies was conducted. For these experiments, 96-well plates were first coated in poly-L-ornithine before cells were seeded (in triplicate), including the murine 5T33MM and the human RPMI8226, and ARH77 cell lines (15,000 cells per well). Cells were incubated in IncuCyte™ Live-Cell Analysis System for 72 hours (images were taken every 4 hours). To define dose-dependent effect of CDDO-2P-IM, cells were exposed to concentrations ranging from 50 nM to 150 nM. To examine potential synergy of CDDO-2P-IM with IXZ, MM cells were exposed to IXZ (7 nM-10 nM) either alone or in combination with CDDO-2P-IM."}, "brain tumor cell lines": {"system": "brain tumor cell lines", "assay": "Radiation response of brain tumor cell lines in vitro", "type": "cell-based"}}}
{"smiles": "CC1(C)CC[C@]2(C(=O)n3cnc(-c4ccccn4)c3)CC[C@]3(C)[C@H](C(=O)C=C4[C@@]5(C)C=C(C#N)C(=O)C(C)(C)[C@@H]5CC[C@]43C)[C@@H]2C1", "note": "[CDDO-2P-Im, 1-[2-Cyano-3,12-dioxooleana-1,9(11)-dien-28-oyl]-4(-pyridin-2-yl)-1H-imidazole]", "values": [{"measurement": "level in brain", "setting": "[1]; single i.p. 1 micromole (low dose) in DMSO, 3 hours", "value": "270+/−80 nanomoles/kg of brain"}, {"measurement": "level in brain", "setting": "[1]; single i.p. 1 micromole (low dose) in DMSO, 6 hours", "value": "300+/−90 nanomoles/kg of brain"}, {"measurement": "level in brain", "setting": "[1]; single i.p. 2 micromoles (high dose) in DMSO, 3 hours", "value": "2,600+/−2,200 nanomoles/kg of brain"}, {"measurement": "level in brain", "setting": "[1]; single i.p. 2 micromoles (high dose) in DMSO, 6 hours", "value": "540+/−260 nanomoles/kg of brain"}, {"measurement": "concentrations at which a significant reduction in cell viability was observed", "setting": "[2]", "value": "below 100 nM"}, {"measurement": "Caspase 1 activation (caspase-p10 released into supernatant)", "setting": "Caspase 1", "value": "inhibit"}, {"measurement": "anti-MM activity (survival) as a single agent", "setting": "5T33MM cells [3]; daily oral gavage 5 days/week from 3 weeks after 5T33MM-luc inoculation, compared to IXZ 6 mg/kg per week po", "value": "comparable to or better than IXZ"}, {"measurement": "tolerability", "setting": "5T33MM cells [3]; daily oral regimen", "value": "well tolerated"}, {"measurement": "binding to LONP1", "setting": "LONP1", "value": "shown to bind LONP1"}, {"measurement": "viability", "setting": "primary human astrocytes", "value": "no effect"}, {"measurement": "proliferation (confluence), combination with IXZ", "setting": "5T33MM cells [4]; 50 nM TTX01/7.5 nM IXZ", "value": "act synergistically"}, {"measurement": "proliferation (confluence), agent added alone", "setting": "5T33MM cells [4]; 50 nM TTX01 or 7.5 nM IXZ alone", "value": "only partially effective"}, {"measurement": "proliferation (confluence)", "setting": "5T33MM cells [4]; 50 nM-150 nM", "value": "significant dose-dependent suppressive effects"}, {"measurement": "radiation response", "setting": "brain tumor cell lines", "value": "enhances radiation response"}]}
